Experimental data published in paper PMC7515912, “Structural insight into the binding of human galectins to corneal keratan sulfate, its desulfated form and related saccharides” (Scientific Reports, 2020).
Like-named read-outs stand apart in the source and are kept apart here. One block for each compound: values may come before it.

Experiments:
Gal-7 = biological target: T1, Gal-7 (Homo sapiens, UniProt P47929); assay: 1H-15N HSQC NMR titration of 15N-labeled Gal-7; format: binding
T1 construct: made in house
T1 sequence (P47929 whole entry): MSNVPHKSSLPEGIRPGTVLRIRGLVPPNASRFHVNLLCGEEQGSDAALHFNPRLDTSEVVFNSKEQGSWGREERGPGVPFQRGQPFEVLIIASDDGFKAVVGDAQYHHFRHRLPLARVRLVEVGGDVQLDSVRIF
Procedure: (§1) Uniformly ^15N-labeled Gal-3 (or Gal-7) was dissolved at a concentration of 20 μM in 20 mM potassium phosphate buffer at pH 6.9, made up using a 95% H2O/ 5% D2O mixture. ^1H–^15N HSQC NMR experiments were used to investigate binding of KS or KSDS to Gal-3[39] and Gal-7[90]. NMR experiments were performed at 30 °C on Bruker AVANCE III 700 MHz or 850 MHz spectrometers equipped with cryogenically-cooled z-gradient triple resonance probes. Chemical shift perturbations were monitored, using the sequence-specific ^1H and ^15N resonances assignments for human Gal-3, Gal-3 CRD, and Gal-7. Chemical shifts were internally referenced to DSS (4,4-dimethyl-4-silapentane-1-sulfonic acid). Raw data were converted and processed by using NMRPipe[91] and were analyzed by using NMRview[92].
Chemical shifts, δ, were referenced to 4,4-dimethyl-4-silapentane-1-sulfonic acid, and chemical shift differences (∆δ) were calculated as [(∆^1H)^2 + (0.25∆^15N)^2 ]^1/2. Intensity changes (∆Intensity) were calculated as (1 − Inti/Into), where Into is the initial resonance intensity and Inti is the intensity upon addition of KS or KSDS or another saccharide. Using this equation, a value of 1 means that that resonance is no longer observable, and 0 means the absence of resonance broadening, with a negative value indicating increased resonance intensity. […]

[1] = biological target: T2, Gal-3 FL (full-length human Gal-3, residues 1–250) (Homo sapiens, UniProt P17931); assay: 1H-15N HSQC NMR titration of 15N-labeled full-length Gal-3; format: binding
T2 construct: Full-length human Gal-3 (residues 1–250); made in house
T2 sequence (P17931 whole entry, the tested form may be a part): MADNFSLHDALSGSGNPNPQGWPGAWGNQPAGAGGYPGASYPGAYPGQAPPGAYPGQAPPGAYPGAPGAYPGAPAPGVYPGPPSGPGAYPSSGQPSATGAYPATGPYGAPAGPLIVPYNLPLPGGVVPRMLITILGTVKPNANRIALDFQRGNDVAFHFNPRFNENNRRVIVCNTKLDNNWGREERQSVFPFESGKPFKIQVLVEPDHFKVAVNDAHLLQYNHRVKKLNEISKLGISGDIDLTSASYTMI
Procedure: as §1
(§2) Chemical shifts, δ, were referenced to 4,4-dimethyl-4-silapentane-1-sulfonic acid, and chemical shift differences (∆δ) were calculated as [(∆^1H)^2 + (0.25∆^15N)^2 ]^1/2. Intensity changes (∆Intensity) were calculated as (1 − Inti/Into), where Into is the initial resonance intensity and Inti is the intensity upon addition of KS or KSDS or another saccharide. Using this equation, a value of 1 means that that resonance is no longer observable, and 0 means the absence of resonance broadening, with a negative value indicating increased resonance intensity. In chemical shift or resonance broadening maps, the most perturbed resonances are defined as > 2SD above the average or > 1SD above the average. The 50% bound mark was taken from titration curves at 50% bound.

[2] = biological target: T3, Gal-3 CRD (residues 108–250) (Homo sapiens, UniProt P17931); assay: 1H-15N HSQC NMR titration of 15N-labeled Gal-3 CRD; format: binding
T3 construct: its Gal-3 CRD (residues 108–250); made in house
T3 sequence (P17931 108-250): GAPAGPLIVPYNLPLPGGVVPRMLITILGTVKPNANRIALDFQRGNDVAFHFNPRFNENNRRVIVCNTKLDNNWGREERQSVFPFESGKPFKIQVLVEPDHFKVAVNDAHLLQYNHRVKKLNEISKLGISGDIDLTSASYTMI
Procedure: as §1, §2

[3] = biological target: Gal-3 (full-length and CRD) (Homo sapiens, UniProt P17931); assay: PFG NMR diffusion of KS as a function of Gal-3/KS molar ratio; format: binding
Chain of Gal-3 (full-length and CRD) (P17931 108-250 limits assumed): as the sequence (P17931 108-250) above
Procedure: (§3) For pulsed field gradient (PFG) NMR self-diffusion measurements, a solution was made up with KS (4 μM) in 20 mM potassium phosphate buffer with ^2H2O at pD 6.7 adjusted by addition of NaO^2H or ^2HCl. To this solution, ^15N/^13C-labeled Gal-3 (full-length and CRD) dissolved in the same buffer was added at increasing concentrations as molar ratios of [Gal-3]/[KS]. PFG NMR data were acquired at 30 ◦C on a Bruker AVANCE 700 spectrometer, essentially as previously described. For unrestricted diffusion of molecules in isotropic solutions, the PFG NMR signal amplitude, A, normalized to the signal in the absence of gradient pulses, is related to the diffusion coefficient D by Eq. (1):1 A=exp[-γ^2g^2Δ^2D(Δ-[…])]
(§4) where γ is the gyromagnetic ratio, g is the magnitude of the magnetic field gradient pulse, ∆ is the time between gradient pulses. Here, we set g = 1–75 G/cm, ∆ = 34.2 ms, with a longitudinal eddy-current delay of 100 ms. Each D value was determined from a series of 14 1D PFG NMR spectra (256 scans each) using different g values. To derive D values, the gradient-induced change in amplitude of KS resonances at 3.64 and 3.7 ppm was used. In this spectral region, KS resonance intensity was considerably greater than that from Gal-3. In order to decrease Gal-3 resonance intensity further, ^13CH and ^15NH resonances from labeled Gal-3 were not decoupled.

[4] = PFG NMR self-diffusion of KS alone; format: physicochemical; conditions: KS 4 μM in the absence of Gal-3; 20 mM potassium phosphate in 2H2O, pD 6.7, 30 °C
Procedure: as §3, §4

Compound: CC(=O)N[C@H]1[C@H](O[C@H]2[C@@H](O)[C@@H](CO)O[C@@H](O[C@H]3[C@H](O)[C@@H](O)C(O)O[C@@H]3CO)[C@@H]2O)O[C@H](CO)[C@@H](O)[C@@H]1O[C@@H]1O[C@H](CO)[C@H](O)[C@H](O)[C@H]1O (some centres unmarked) [LNT, lacto-N-tetraose, reference compound]
Kd (Gal-7; fast exchange, from average ∆δ vs ligand concentration, Gal-7, pH 6.9, 30 °C, read-out: KD): ~500 µM

Compound: CC(=O)N[C@H]1C(O)O[C@H](CO)[C@@H](O[C@@H]2O[C@H](CO)[C@H](O)[C@H](O)[C@H]2O)[C@@H]1O (some centres unmarked) [LacNAc, N-acetyllactosamine, reference compound]
Kd ([1]; fast exchange, from chemical shifts vs ligand concentration, Gal-3 FL 20 μM, pH 6.9, 30 °C, read-out: KD): 190 µM | Kd ([2]; fast exchange, from chemical shifts vs ligand concentration, Gal-3 CRD 20 μM, pH 6.9, 30 °C, read-out: KD): 380 µM

binding stoichiometry, Gal-3 molecules per KS molecule ([3]; D trend continues to Gal-3/KS molar ratio of ~6 to 8, both Gal-3 FL and CRD): ≤ 8 | decrease of KS D value ([3]; upon addition of one mole equivalent of Gal-3): about 40% | Kd ([1]; 2 μM × 17 sites, assumes the same stoichiometry as KSDS, Gal-3 FL, read-out: site-average microscopic KD): 34 µM | Kd ([1]; apparent affinity/avidity from average ∆δ vs ligand concentration, 20 μM Gal-3 FL, 20 mM KPhos, pH 6.9, 30 °C, read-out: 50% change in chemical shift / 50% lectin bound (ligand concentration)): ~2 µM | Kd (Gal-7; binding avidity estimated from average ∆δ vs glycosaminoglycan concentration, 20 μM Gal-7, pH 6.9, 30 °C, read-out: 50% Gal-7 loaded with ligand (ligand concentration)): ~4.5 µM | diffusion coefficient D [4]: 0.92 × 10^–6 cm^2/s^-1 | Kd ([2]; 7 μM × 22 sites, assumes the same stoichiometry as KSDS, Gal-3 CRD, read-out: site-average microscopic KD): 154 µM | Kd ([2]; apparent affinity/avidity from average ∆δ vs ligand concentration, 20 μM Gal-3 CRD, 20 mM KPhos, pH 6.9, 30 °C, read-out: 50% change in chemical shift / 50% lectin bound (ligand concentration)): ~7 µM
Compound: keratan sulfate [KS]
